Results as given in patent publication US20240002416A1 (Rheinische-Friedrich-Wilhelms-Universität Bonn, priority 2020, published 2024).

Legend:
Format in all cases: cell-based
human MRGPRX4-83L [1] = target: T1, human MRGPRX4-83L (Homo sapiens, UniProt Q96LA9); assay: β-arrestin assay (CHO β-arrestin ARMS1-ProLink 2 human MRGPRX4 83L); conditions: for IC50: inhibition of the effect of 2.6 μM B-16; for EC50: β-arrestin recruitment, CHO cells, MRGPRX4-83L, read-out: EC50 ± SEM; for Emax: read-out: Emax
T1 construct: host or cells: CHO β-arrestin cells
T1 sequence (Q96LA9 whole entry): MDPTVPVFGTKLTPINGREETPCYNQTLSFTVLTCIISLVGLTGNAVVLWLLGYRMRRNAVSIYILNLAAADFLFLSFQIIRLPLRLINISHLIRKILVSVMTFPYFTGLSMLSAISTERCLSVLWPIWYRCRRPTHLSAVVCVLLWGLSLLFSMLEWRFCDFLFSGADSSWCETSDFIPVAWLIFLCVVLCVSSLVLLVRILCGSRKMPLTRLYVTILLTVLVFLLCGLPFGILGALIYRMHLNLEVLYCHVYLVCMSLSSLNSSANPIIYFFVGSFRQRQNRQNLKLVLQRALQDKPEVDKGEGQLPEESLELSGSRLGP
Protocol: (§1) For β-arrestin recruitment assays, recombinant Chinese hamster ovary (CHO) cells expressing the human MRGPRX4 were used (DiscoverX/Eurofins) which allowed to measure β-galactosidase complementation upon β-arrestin recruitment. For calcium mobilization assays, recombinant astrocytes expressing MRGPX4-83L, or LN229 glioblastoma cells natively expressing the MRGPRX4-83S, were used.
(§2) The assays were performed as previously described for other rhodopsin-like GPCRs (Müller, C.E.; 8-Benzamidochromen-4-one-2-carboxylic acids: potent and selective agonists for the orphan G protein-coupled receptor GPR35. J. Med. Chem. 2013, 56:5182-97; Müller, C.E. Molecular Recognition of Agonists and Antagonists by the Nucleotide-Activated G Protein-Coupled P2Y2 Receptor. J. Med. Chem. 2017, 60:8425-8440).

human MRGPRX4-83L [2] = target: T1, human MRGPRX4-83L; assay: Calcium assay (human MRGPRX4 83L), recombinant astrocytes; conditions: for EC50: calcium mobilization, MRGPRX4-83L, read-out: EC50 ± SEM; for Emax: read-out: Emax
Protocol: as §1, §2

MRGPRX4-83S [3] = target: T2, MRGPRX4-83S (Homo sapiens, UniProt Q96LA9, L83S); assay: β-arrestin assay (CHO β-arrestin human MRGPRX4-83S); set-up: host or cells: CHO β-arrestin cells; conditions: for EC50: β-arrestin recruitment, CHO cells, MRGPRX4-83S, read-out: EC50 ± SEM; for Emax: efficacy based on 100 nM B-16 (set as 100%), read-out: Emax
T2 sequence (Q96LA9 whole entry L83S): as the sequence (Q96LA9 whole entry) above, with L83S counted along it
Protocol: as §1, §2

MRGPRX4-83S [4] = target: T2, MRGPRX4-83S; assay: Calcium assay (human glioblastoma LN229 cells expressing the MRGPRX4-83S); set-up: LN229 glioblastoma cells natively expressing the MRGPRX4-83S; endogenous in cells; host or cells: LN229 human glioblastoma cells; conditions: for EC50: calcium mobilization, LN229 cells, MRGPRX4-83S, read-out: EC50 ± SEM; for Emax: LN-229, efficacy based on 30 μM H-1 (set as 100%), read-out: Emax
Protocol: as §1, §2

[5] = Table 1, means of 3-4 experiments
[6] = Table 1, efficacy based on maximal effect of 100 nM B-16 (set as 100%)
[7] = Table 1, efficacy based on maximal effect of 1 μM B-16 (set as 100%)

Structure (SMILES)	IC50 (human MRGPRX4-83L [1]; Table 1) [µM]	EC50 (human MRGPRX4-83L [1]; [5]) [µM]	IC50 (human MRGPRX4-83L [2]) [µM]	EC50 (human MRGPRX4-83L [2]; Table 1) [µM]	EC50 (MRGPRX4-83S [3]; Table 2) [µM]	EC50 (MRGPRX4-83S [4]; Table 2) [µM]	Emax (human MRGPRX4-83L [2]; [7]) [%]	Emax (MRGPRX4-83S [3]; Table 2) [%]	Emax (MRGPRX4-83S [4]; Table 2) [%]	also measured
CCCn1c(=O)c2[nH]c(-c3ccccc3)nc2n(CCCCP(=O)(O)O)c1=O [J-3, (4-(2,6-Dioxo-8-phenyl-1-propyl-1,2,6,7-tetrahydro-3H-purin-3-yl)butyl)phosphonic acid]	> 10	> 10	> 10	> 10	> 10	> 10	–	–	–	IC50 (MRGPRX4-83S [3]): > 10 µM
C#CCn1c(=O)c2[nH]c(CCc3cccc(OC)c3)nc2n(CCCCP(=O)(OCC)OCC)c1=O [C-6, Diethyl (4-(8-(3-methoxyphenethyl)-2,6-dioxo-1-(prop-2-yn-1-yl)-1,2,6,7-tetrahydro-3H-purin-3-yl)butyl)phosphonate]	> 10	> 10	> 10	> 10	> 10	–	–	–	–	–
C#CCn1c(=O)c2[nH]c(CCc3cccc(OC)c3)nc2n(CCCCS(=O)(=O)O)c1=O [E-3, 4-(8-(3-Methoxyphenethyl)-2,6-dioxo-1-(prop-2-yn-1-yl)-1,2,6,7-tetrahydro-3H-purin-3-yl)butane-1-sulfonic acid]	> 10	> 10	> 10	> 10	> 10	–	–	–	–	–
C#CCn1c(=O)c2c(nc(Cc3ccc4ccccc4c3)n2CC)n(CCCCP(=O)(O)O)c1=O [B-58]	–	–	–	–	–	–	–	–	–	EC50 (human MRGPRX4-83L [1]; Table 4): > 10 µM; EC50 (human MRGPRX4-83L [2]; Table 4): > 10 µM; EC50 (MRGPRX4-83S [3]; Table 3): > 100 µM; IC50 (MRGPRX4-83S [4]): 0.0317 ± 0.0191 µM; EC50 (MRGPRX4-83S [4]; Table 3): > 10 µM
C#CCn1c(=O)c2c(nc(CCc3ccccc3Cl)n2C)n(CCCCP(=O)(O)O)c1=O [B-17, (4-(8-(2-Chlorophenethyl)-7-methyl-2,6-dioxo-1-(prop-2-yn-1-yl)-1,2,6,7-tetrahydro-3H-purin-3-yl)butyl)phosphonic acid]	–	0.169 ± 0.06	–	0.00223 ± 0.00013	–	–	109	–	–	Emax (human MRGPRX4-83L [1]; [6]): 114%
C#CCn1c(=O)c2[nH]c(/C=C/c3cccc(OC)c3)nc2n(CCCCP(=O)(O)O)c1=O [J-1, (E)-(4-(8-(3-Methoxystyryl)-2,6-dioxo-1-(prop-2-yn-1-yl)-1,2,6,7-tetrahydro-3H-purin-3-yl)butyl)phosphonic acid]	–	> 10	–	> 10	0.2 ± 0.059	0.0116 ± 0.0013	–	65	–	–

More lines, main results first:

IC50 (human MRGPRX4-83L [1]; Table 1) [µM]	EC50 (human MRGPRX4-83L [1]; [5]) [µM]	IC50 (human MRGPRX4-83L [2]) [µM]	EC50 (human MRGPRX4-83L [2]; Table 1) [µM]	EC50 (MRGPRX4-83S [3]; Table 2) [µM]	EC50 (MRGPRX4-83S [4]; Table 2) [µM]	Emax (human MRGPRX4-83L [2]; [7]) [%]	Emax (MRGPRX4-83S [3]; Table 2) [%]	Emax (MRGPRX4-83S [4]; Table 2) [%]	Structure (SMILES)	also measured
–	13 ± 4.1	–	0.574 ± 0.179	0.374 ± 0.111	0.238 ± 0.011	107	86	98	C#CCn1c(=O)c2c(nc(CCc3cccc(OC)c3)n2C)n(CCCOP(=O)(O)O)c1=O [H-1, 3-(8-(3-Methoxyphenethyl)-7-methyl-2,6-dioxo-1-(prop-2-yn-1-yl)-1,2,6,7-tetrahydro-3H-purin-3-yl)propyl dihydrogen phosphate, reference compound]	Emax (human MRGPRX4-83L [1]; [6]): 97%
> 10	> 10	–	2.5 ± 0.73	0.674 ± 0.05	0.801 ± 0.233	113	–	88	CCCn1c(=O)c2c(nc(CCc3cccc(OC)c3)n2C)n(CCCOP(=O)(O)O)c1=O [H-2, 3-(8-(3-Methoxyphenethyl)-7-methyl-2,6-dioxo-1-propyl-1,2,6,7-tetrahydro-3H-purin-3-yl)propyl dihydrogen phosphate, reference compound]	–
–	0.37 ± 0.05	–	0.0324 ± 0.0056	0.00228 ± 0.00016	0.00317 ± 0.0006	–	100	137	C#CCn1c(=O)c2c(nc(CCc3cccc(C(F)(F)F)c3)n2C)n(CCCCP(=O)(O)O)c1=O [B-16, (4-(7-Methyl-2,6-dioxo-1-(prop-2-yn-1-yl)-8-(3-(trifluoromethyl)phenethyl)-1,2,6,7-tetrahydro-3H-purin-3-yl)butyl)phosphonic acid]	Emax at 0.1 µM (human MRGPRX4-83L [1]; [6]): 100%; Emax at 1 µM (human MRGPRX4-83L [2]; [7]): 100%
